Patent US20250041315A1, “LEVONORGESTREL BUTANOATE FORMULATION AND METHODS RELATING THERETO” (The USA, as Represented by the Secretary, Department of …, priority 2021, published 2025)

Tests used:
[1] = injections at 3-month intervals; cited from earlier work
[2] = Effect of gamma irradiation sterilization on spray dried LNGB particles (colour, qualitative HPLC); assay type: physicochemical
Experimental: In this comparative example, a sample of LNGB particles was prepared using a gamma irradiation step to sterilize spray dried particles. The LNGB particles were obtained by spray drying and then were subjected to gamma irradiation to evaluate the effect of irradiation on the particles. […] Qualitative HPLC was performed to compare the peak profiles of the LNGB particles before and after irradiation. FIGS. 2-5 show HPLC traces of the sample before (FIG. 2) and after (FIGS. 3-5) irradiation. Irradiated samples generated three major peaks, A, D, and E, at >0.15%, as well as a small peak, C, at ˜0.07%. […] In N2- and Ar-purged irradiated samples (FIGS. 4 and 5, respectively), peaks F and G were not resolved from other peaks (either degradation products or gradient artifacts).

Structure (SMILES)	typical failure rate [1]	major impurity peaks A, D, and E (HPLC) after irradiation ([2]; irradiated samples)	small impurity peak C (HPLC) after irradiation ([2]; irradiated samples)	colour of particles after gamma irradiation ([2]; spray dried particles, gamma irradiated, initial particles white/translucent)
CC(=O)O[C@]1(C(C)=O)CC[C@H]2[C@@H]3C[C@H](C)C4=CC(=O)CC[C@]4(C)[C@H]3CC[C@@]21C [DMPA, Depomedroxyprogesterone Acetate]	4%			
C#C[C@]1(OC(=O)CCC)CC[C@H]2[C@@H]3CCC4=CC(=O)CC[C@@H]4[C@H]3CC[C@@]21CC [LNGB particles, Levonorgestrel butanoate]		> 0.15%	~0.07%	yellow color
